Source: patent US9682925B2, “Cyclopropaneamine compound” (TAKEDA PHARMACEUTICAL COMPANY LIMITED, priority 2011, dated 2017)
pIC50: −log10 of the molar value.

How the values were obtained:
Assay type in all cases: biochemical
human LSD1(171-852) = target: T1, human LSD1(171-852) (Homo sapiens, UniProt O60341); assay: Measurement of LSD1 inhibitory activity (time-resolved fluorescence, biotin-histone H3 mono methylated K4 peptide); conditions: read-out: LSD1 IC50 value
T1 construct: to give hLSD1(171-852) purified product; made in house; host or cells: Escherichia coli C43(DE3) pLysS
Experimental: When the turbidity reached 600 Klett units, the culture temperature was changed to 16° C., IPTG having a final concentration of 0.5 mM was added to induce expression, and the cells were cultured further for 21 hr. The culture medium was centrifuged at 9,000 g for 10 min, and Escherichia coli pellets were recovered.
Escherichia coli pellets in 9 L of the culture medium were suspended in 1340 mL of an extraction buffer (PBS, 5% (V/V) Glycerol), and 6700 units of Benzonase (Merck) were added. Using Branson ultrasonic disintegrator, the suspension was disrupted by ultrasonication for 3 min, and centrifuged at 33,000 g for 20 min, and the supernatant was recovered.
(5) Measurement of LSD1 Inhibitory Activity
After reaction at room temperature for 20 min, 1 mM 2-PCPA solution (5 μL) was added to terminate the reaction. A detection solution (800 mM potassium fluoride, 0.1% BSA) containing europium-labeled antihistone H3 antibody (Wako Pure Chemical Industries, Ltd.) and Streptavidin-XL665 (Cisbio) was further added by 5 μL, and the mixture was left standing for 60 min. A time-resolved fluorescence (excitation 320 nm, emission 615 nm, 665 nm) was measured by Envision (PerkinElmer). The LSD1 inhibitory rate (%) of the test compound was calculated by the following formula. inhibitory rate (%)=(1−(test compound count−blank)÷(control−blank)×100
The count of the LSD1 enzyme reaction mixture under compound non-addition conditions is indicated as control, and the count under compound non-addition and LSD1 enzyme non-addition conditions is indicated as blank.

MAO-A = target: T2, MAO-A (Homo sapiens, UniProt P21397); assay: Measurement of MAO-A inhibitory activity (MAO-Glo Assay)
T2 construct: purchased Sigma-Aldrich Co. LLC
T2 sequence (P21397 1-527): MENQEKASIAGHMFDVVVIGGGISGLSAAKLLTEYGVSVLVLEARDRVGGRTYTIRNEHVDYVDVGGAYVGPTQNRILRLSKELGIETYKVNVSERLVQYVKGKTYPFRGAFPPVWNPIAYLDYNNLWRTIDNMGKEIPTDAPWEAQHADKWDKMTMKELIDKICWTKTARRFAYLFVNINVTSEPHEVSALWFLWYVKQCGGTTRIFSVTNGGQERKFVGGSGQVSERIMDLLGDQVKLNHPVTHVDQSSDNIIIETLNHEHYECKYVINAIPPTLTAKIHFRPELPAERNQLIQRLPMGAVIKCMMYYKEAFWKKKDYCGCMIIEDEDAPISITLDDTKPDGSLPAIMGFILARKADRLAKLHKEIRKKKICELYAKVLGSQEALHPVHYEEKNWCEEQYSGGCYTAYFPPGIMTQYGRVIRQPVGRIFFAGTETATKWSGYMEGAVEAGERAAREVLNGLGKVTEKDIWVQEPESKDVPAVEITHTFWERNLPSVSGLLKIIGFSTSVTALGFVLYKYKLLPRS
Experimental: (1) Measurement of MAO-A Inhibitory Activity
The MAO-A inhibitory activity evaluation described below followed the protocol of MAO-Glo (registered trademark) Assay of Promega KK.
(§1) A test compound dissolved in 4% DMSO was added by 12.5 μL to 25 μL reaction solution (100 mM HEPES (pH 7.5), 5% glycerol) containing 400 ng of MAO-A enzyme (Sigma-Aldrich Co. LLC.), and the mixture was reacted at room temperature for 10 min. MAO substrate (Promega KK) (160 μM) was added by 12.5 μL to start the reaction. After reaction at room temperature for 60 min, Luciferine detection reagent (Promega KK) (50 μL) was added to terminate the reaction. After reaction at room temperature for 20 min with stirring, the luminescence was measured by Envision (PerkinElmer). The MAO-A inhibitory rate (%) of the test compound was calculated by the following formula. inhibitory rate (%)=(1−(test compound count−blank)÷(control−blank)×100
The count of the MAO-A enzyme reaction mixture under compound non-addition conditions is indicated as control, and the count under compound non-addition and MAO-A enzyme non-addition conditions is indicated as blank.

MAO-B = target: T3, MAO-B (Homo sapiens, UniProt P27338); assay: Measurement of MAO-B inhibitory activity (MAO-Glo Assay)
T3 construct: purchased Sigma-Aldrich Co. LLC
T3 sequence (P27338 1-520): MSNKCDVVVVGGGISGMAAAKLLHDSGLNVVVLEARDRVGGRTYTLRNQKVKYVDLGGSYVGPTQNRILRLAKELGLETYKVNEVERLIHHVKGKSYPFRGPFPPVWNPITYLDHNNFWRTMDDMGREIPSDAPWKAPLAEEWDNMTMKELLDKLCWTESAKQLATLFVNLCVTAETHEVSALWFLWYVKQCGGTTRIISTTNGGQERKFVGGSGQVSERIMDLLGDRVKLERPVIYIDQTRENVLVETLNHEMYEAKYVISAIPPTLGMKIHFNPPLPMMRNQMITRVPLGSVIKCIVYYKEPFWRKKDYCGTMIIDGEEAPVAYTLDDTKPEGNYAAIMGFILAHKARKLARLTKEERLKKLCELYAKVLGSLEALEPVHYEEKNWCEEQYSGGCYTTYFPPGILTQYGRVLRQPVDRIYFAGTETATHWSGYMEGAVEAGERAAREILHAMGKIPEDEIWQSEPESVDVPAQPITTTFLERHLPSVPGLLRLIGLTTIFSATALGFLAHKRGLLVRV
Experimental: (2) Measurement of MAO-B Inhibitory Activity
The MAO-B inhibitory activity evaluation described below followed the protocol of MAO-Glo (registered trademark) Assay of Promega KK.
as §1, with “glycerol, 10% DMSO)” for “glycerol)”, “MAO-B” for “MAO-A”, “(16” for “(160”
The count of the MAO-B enzyme reaction mixture under compound non-addition conditions is indicated as control, and the count under compound non-addition and MAO-B enzyme non-addition conditions is indicated as blank.

Structure (SMILES)	pIC50 (human LSD1(171-852))	pIC50 (MAO-A)	pIC50 (MAO-B)
O=C(Nc1ccc([C@@H]2C[C@H]2NC2c3ccccc3-c3ccccc32)cc1)c1ccccc1 (relative stereo) [Example 21, N-{4-[trans-2-(9H-fluoren-9-ylamino)cyclo-propyl]phenyl}-benzamide]	> 7.00	< 5.00	< 5.00
CCCCCCCCCCCCN[C@@H]1C[C@H]1c1ccc(NC(=O)c2ccccc2)cc1 (relative stereo) [Example 22, N-{4-[trans-2-(dodecylamino)-cyclopropyl]-phenyl}benzamide]	6.39	5.44	5.59
O=C(Nc1ccc([C@@H]2C[C@H]2NC2CCCCCC2)cc1)c1ccccc1 (relative stereo) [Example 23, N-{4-[trans-2-(cycloheptyl-amino)cyclo-propyl]phenyl}-benzamide]	> 7.00	< 5.00	< 5.00
O=C(Nc1ccc([C@@H]2C[C@H]2NC2CCCCCCC2)cc1)c1ccccc1 (relative stereo) [Example 24, N-{4-[trans-2-(cyclooctyl-amino)cyclo-propyl]phenyl}-benzamide]	> 7.00	< 5.00	< 5.00
O=C(Nc1ccc([C@@H]2C[C@H]2NC2CCN(Cc3ccccc3)CC2)cc1)c1ccccc1 (relative stereo) [Example 25, N-(4-{trans-2-[(1-benzyl-piperidin-4-yl)amino]cyclo-propyl}phenyl)-benzamide]	> 7.00	< 5.00	< 5.00
O=C(Nc1ccc([C@@H]2C[C@H]2NCCOCc2ccccc2)cc1)c1ccccc1 (relative stereo) [Example 26, N-[4-(trans-2-{[2-(benzyloxy)-ethyl]amino}-cyclopropyl)-phenyl]benzamide]	> 7.00	5.04	< 5.00
O=C(Nc1ccc([C@@H]2C[C@H]2NCc2ccccc2)cc1)c1cccc(Cc2ccccc2)c1 (relative stereo) [Example 28, 3-benzyl-N-{4-[trans-2-(benzylamino)cyclopropyl]phenyl}benzamide]	> 7.00	5.46	< 5.00

Now from value to compound:

pIC50 (human LSD1(171-852))	pIC50 (MAO-A)	pIC50 (MAO-B)	Structure (SMILES)
> 7.00	5.22	< 5.00	O=C(Nc1ccc([C@@H]2C[C@H]2NCc2ccccc2F)cc1)c1ccccc1 (relative stereo) [Example 15, N-(4-{trans-2-[(2-fluoro-benzyl)amino]-cyclopropyl}-phenyl)benzamide]
> 7.00	5.33	< 5.00	O=C(Nc1ccc([C@@H]2C[C@H]2NCc2ccc(-c3ccccc3)cc2)cc1)c1ccccc1 (relative stereo) [Example 16, N-(4-{trans-2-[(biphenyl-4-ylmethyl)amino]-cyclopropyl}-phenyl)benzamide]
> 7.00	< 5.00	< 5.00	CC(C)(C)CN[C@@H]1C[C@H]1c1ccc(NC(=O)c2ccccc2)cc1 (relative stereo) [Example 17, N-(4-{trans-2-[(2,2-dimethyl-propyl)amino]-cyclopropyl)-phenyl)benzamide]
> 7.00	5.59	< 5.00	O=C(Nc1ccc([C@@H]2C[C@H]2NCc2ccc3ccccc3c2)cc1)c1ccccc1 (relative stereo) [Example 18, N-(4-{trans-2-[(naphthalen-2-ylmethyl)amino]-cyclopropyl}-phenyl)benzamide]
> 7.00	< 5.00	5.49	CC(N[C@@H]1C[C@H]1c1ccc(NC(=O)c2ccccc2)cc1)c1ccccc1 (relative stereo) [Example 19, N-(4-{trans-2-[(1-phenyl-ethyl)amino]-cyclopropyl}-phenyl)benzamide]
> 7.00	< 5.00	< 5.00	O=C(Nc1ccc([C@@H]2C[C@H]2NC2CCc3ccccc32)cc1)c1ccccc1 (relative stereo) [Example 20, N-{4-[trans-2-(2,3-dihydro-1H-inden-1-ylamino)cyclo-propyl]phenyl}-benzamide]
